Measured values reported in patent US20260115191A1, “Nilotinib Compositions with Enhanced Solubility” (Neoform Biopharmaceutical Limited, priority 2020, published 2026).
Where a name gives a salt, the structure may show the parent alone.

Assay: In-vivo testing: plasma pharmacokinetics after single oral gavage of suspension in rats
Settings: Sprague-Dawley, rat, 10 mg/kg

An AUC(0-t) of 2910 ng·h/mL, a Cmax of 493 ng/mL and a Tmax of 2 h were found for Cc1cn(-c2cc(NC(=O)c3ccc(C)c(Nc4nccc(-c5cccnc5)n4)c3)cc(C(F)(F)F)c2)cn1 [Nilotinib HCl monohydrate, 4-methyl-N-[3-(4-methylimidazol-1-yl)-5-(trifluoromethyl)phenyl]-3-[(4-pyridin-3-ylpyrimidin-2-yl)amino]benzamide] in this work.
